Test results: ChEMBL document CHEMBL4390668, “Discovery and Structural Optimization of Acridones as Broad-Spectrum Antimalarials” (J Med Chem, 2019)
Active and inactive are the calls of the source. No cut-off for these calls is given here.

Assays:
[1] = Mean residence time in ICR mouse liver at 80 mg/kg, po administered as single dose; assay type: ADME, organism-based
[2] = Mutagenicity in Salmonella typhimurium TA98 assessed as increase in revertant colonies up to 10 uM in absence of S9 fraction by Ames test; assay type: toxicity; conditions: salmonella enterica subsp. enterica serovar typhimurium
[3] = Tmax in ICR mouse plasma at 80 mg/kg, po administered as single dose; assay type: ADME, organism-based; conditions: ICR, plasma, read-out: Tmax
[4] = AUC (0 to last) in ICR mouse plasma at 80 mg/kg, po administered as single dose; assay type: ADME, organism-based; parameters: dose 80 mg/kg, route oral, time 0 - last
[5] = Cmax in ICR mouse liver at 80 mg/kg, po administered as single dose; assay type: ADME, organism-based; parameters: dose 80 mg/kg, route oral
[6] = Cmax in ICR mouse plasma at 80 mg/kg, po administered as single dose; assay type: ADME, organism-based; parameters: dose 80 mg/kg, route oral; conditions: ICR, plasma, read-out: Cmax
hERG (KCNH2) = hERG (KCNH2) (Homo sapiens, UniProt Q12809); assay: Inhibition of human ERG expressed in CHOK1 cells at 10 uM by automated patch clamp method relative to control; assay type: cell-based; conditions: CHO-K1 cells that express hERG
Sequence of hERG (KCNH2) (Q12809 whole entry): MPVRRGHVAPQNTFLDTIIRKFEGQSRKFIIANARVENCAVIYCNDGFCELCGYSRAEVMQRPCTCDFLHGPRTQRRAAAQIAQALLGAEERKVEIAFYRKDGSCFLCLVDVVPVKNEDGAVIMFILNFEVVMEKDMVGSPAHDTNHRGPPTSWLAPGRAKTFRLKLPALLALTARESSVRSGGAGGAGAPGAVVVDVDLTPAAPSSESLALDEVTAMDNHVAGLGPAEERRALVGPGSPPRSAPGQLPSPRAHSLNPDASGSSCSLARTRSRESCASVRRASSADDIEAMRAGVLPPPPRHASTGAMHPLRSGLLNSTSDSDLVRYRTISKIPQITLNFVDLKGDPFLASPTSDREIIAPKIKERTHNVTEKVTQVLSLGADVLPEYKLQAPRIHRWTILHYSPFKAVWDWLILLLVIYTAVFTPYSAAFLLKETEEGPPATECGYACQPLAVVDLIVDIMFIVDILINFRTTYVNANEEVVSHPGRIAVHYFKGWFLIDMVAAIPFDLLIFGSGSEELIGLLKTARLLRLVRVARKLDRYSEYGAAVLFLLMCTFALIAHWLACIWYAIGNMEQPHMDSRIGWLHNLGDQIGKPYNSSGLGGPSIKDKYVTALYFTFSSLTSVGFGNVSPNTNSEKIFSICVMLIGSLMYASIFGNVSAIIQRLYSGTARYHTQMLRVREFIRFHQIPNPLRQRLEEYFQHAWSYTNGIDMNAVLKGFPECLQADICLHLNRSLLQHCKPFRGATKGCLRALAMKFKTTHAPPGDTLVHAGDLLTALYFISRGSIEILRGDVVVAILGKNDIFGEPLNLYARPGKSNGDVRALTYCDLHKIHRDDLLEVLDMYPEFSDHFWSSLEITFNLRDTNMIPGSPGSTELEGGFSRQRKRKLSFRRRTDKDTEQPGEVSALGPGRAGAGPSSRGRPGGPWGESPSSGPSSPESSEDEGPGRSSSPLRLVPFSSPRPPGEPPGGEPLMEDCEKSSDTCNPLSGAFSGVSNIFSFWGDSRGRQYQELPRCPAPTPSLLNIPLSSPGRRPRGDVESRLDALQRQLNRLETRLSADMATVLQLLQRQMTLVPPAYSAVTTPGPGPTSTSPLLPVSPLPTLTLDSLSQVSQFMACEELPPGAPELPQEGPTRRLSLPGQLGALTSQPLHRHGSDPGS

[7] = Mean residence time in ICR mouse plasma at 80 mg/kg, po administered as single dose; assay type: ADME, organism-based
Plasmodium berghei [8] = assay: Antimalarial activity against luciferase-expressing Plasmodium berghei ANKA 676m1cl1 sporozoites infected in human HepG2A16 cells measured after 45 hrs by luciferase-luciferin based reporter assay; assay type: functional, organism-based; conditions: ANKA 676m1cl1, HepG2A16, 45 h
Plasmodium falciparum [9] = assay: Antimalarial activity against multidrug-resistant Plasmodium falciparum Dd2 infected in human erythrocytes by SYBR green 1-based fluorescence assay; assay type: functional, organism-based
Plasmodium berghei [10] = assay: Antimalarial activity against liver stage luciferase-expressing Plasmodium berghei ANKA 676m1cl1 sporozoites infected in C57BL/6 mouse assessed as suppression of parasitemia at 10 mg/kg, po pretreated for 1 day followed by parasite infection and subsequent compound dosing for 2 days measured at 24 to 48 hrs post-infection by luciferin-based real-time imaging analysis; assay type: functional
[11] = Apparent volume of distribution in ICR mouse plasma at 80 mg/kg, po administered as single dose; assay type: ADME, organism-based; conditions: in vivo
[12] = AUC (0 to infinity) in ICR mouse liver at 80 mg/kg, po administered as single dose; assay type: ADME, organism-based; parameters: dose 80 mg/kg, route oral, time infinity
[13] = AUC (0 to last) in ICR mouse liver at 80 mg/kg, po administered as single dose; assay type: ADME, organism-based; parameters: dose 80 mg/kg, route oral, time 0 - last
[14] = Apparent elimination half life in ICR mouse plasma at 80 mg/kg, po administered as single dose; assay type: ADME, organism-based; conditions: ICR, plasma, read-out: betat1/2(app) (converted)
[15] = Apparent clearance in ICR mouse plasma at 80 mg/kg, po administered as single dose; assay type: ADME, organism-based; conditions: read-out: CL(app) (converted)
[16] = Half life in mouse liver microsomes at 1 uM by LC-MS analysis; assay type: ADME, Microsome
HepG2 = assay: Cytotoxicity against human HepG2 cells measured after 24 to 36 hrs by resazurin dye based fluorescence assay; assay type: cell-based
Plasmodium yoelii [17] = assay: Antimalarial activity against blood stage Plasmodium yoelii MR4 MRA-428 infected in CF1 mouse assessed as suppression of parasitemia administered once daily via oral gavage for 4 days starting from 24 hrs post-infection and measured post-last dose by Giemsa-staining based microscopic analysis; assay type: functional
[18] = Tmax in ICR mouse liver at 80 mg/kg, po administered as single dose; assay type: ADME, organism-based
Plasmodium falciparum [19] = assay: Antimalarial activity against chloroquine-sensitive Plasmodium falciparum D6 infected in human erythrocytes by SYBR green 1-based fluorescence assay; assay type: functional, organism-based
[20] = Selectivity index, ratio of IC50 for human HepG2 cells to IC50 for chloroquine-sensitive Plasmodium falciparum D6 infected in human erythrocytes; assay type: toxicity, cell-based; conditions: read-out: Ratio IC50
Plasmodium falciparum [21] = assay: Antimalarial activity against atovaquone-resistant Plasmodium falciparum Tm90-C2B infected in human erythrocytes by SYBR green 1-based fluorescence assay; assay type: functional, organism-based
[22] = Half life in human liver microsomes at 1 uM by LC-MS analysis; assay type: ADME, Microsome
[23] = Apparent elimination half life in ICR mouse liver at 80 mg/kg, po administered as single dose; assay type: ADME, organism-based; conditions: read-out: betat1/2(app) (converted)
[24] = Mutagenicity in Salmonella typhimurium TA100 assessed as increase in revertant colonies up to 10 uM in absence of S9 fraction by Ames test; assay type: toxicity; conditions: salmonella enterica subsp. enterica serovar typhimurium
[25] = Mutagenicity in Salmonella typhimurium TA100 assessed as increase in revertant colonies up to 10 uM in presence of S9 fraction by Ames test; assay type: toxicity, subcellular; conditions: salmonella enterica subsp. enterica serovar typhimurium
Plasmodium berghei [26] = assay: Antimalarial activity against blood stage luciferase-expressing Plasmodium berghei ANKA 676m1cl1 sporozoites infected in C57BL/6 mouse assessed as suppression of parasitemia at 10 mg/kg, po pretreated for 1 day followed by parasite infection and subsequent compound dosing for 2 days measured up to 30 days post-infection by YOYO1 staining based flow cytometry; assay type: functional
Plasmodium falciparum [27] = assay: Antimalarial activity against multidrug-resistant Plasmodium falciparum 7G8 infected in human erythrocytes by SYBR green 1-based fluorescence assay; assay type: functional, organism-based
[28] = Mutagenicity in Salmonella typhimurium TA98 assessed as increase in revertant colonies up to 10 uM in presence of S9 fraction by Ames test; assay type: toxicity, subcellular; conditions: salmonella enterica subsp. enterica serovar typhimurium
[29] = AUC (0 to infinity) in ICR mouse plasma at 80 mg/kg, po administered as single dose; assay type: ADME, organism-based; parameters: dose 80 mg/kg, route oral, time infinity; conditions: ICR, plasma
Plasmodium falciparum [30] = assay: Antimalarial activity against drug-resistant Plasmodium falciparum 3D7 harboring A82T/V259L double mutant infected in human erythrocytes after 72 hrs by SYBR green 1-based fluorescence assay; assay type: functional, organism-based; conditions: 3D7, 72 h
[31] = Toxicity in CF1 mouse infected with blood stage Plasmodium yoelii MR4 MRA-428 assessed as behavioral changes at 80 mg/kg, po administered once daily via gavage for 4 days starting from for 4 days starting from 24 hrs post-infection and measured daily during compound dosing; assay type: organism-based; conditions: in vivo
Plasmodium falciparum [32] = assay: Antimalarial activity against drug-resistant Plasmodium falciparum Dd2 harboring M133I/A138T double mutant infected in human erythrocytes after 72 hrs by SYBR green 1-based fluorescence assay; assay type: functional, organism-based; conditions: Dd2, 72 h
[33] = Toxicity in CF1 mouse infected with blood stage Plasmodium yoelii MR4 MRA-428 assessed as clinical toxicity at 80 mg/kg, po administered once daily via gavage for 4 days starting from for 4 days starting from 24 hrs post-infection and measured daily during compound dosing; assay type: organism-based; conditions: in vivo
Plasmodium yoelii [34] = assay: Antimalarial activity against blood stage Plasmodium yoelii MR4 MRA-428 infected in CF1 mouse assessed as suppression of parasitemia at 80 mg/kg, po administered once daily via gavage for 4 days starting from 24 hrs post-infection and measured at weekly intervals for 28 days by Giemsa-staining based microscopic analysis; assay type: functional
Plasmodium falciparum [35] = assay: Inhibition of Plasmodium falciparum cytochrome b-c1
Plasmodium falciparum [36] = assay: Antimalarial activity against drug-resistant Plasmodium falciparum Dd2 harboring V259L mutant infected in human erythrocytes after 72 hrs by SYBR green 1-based fluorescence assay; assay type: functional, organism-based; conditions: Dd2, 72 h

In the case of `CCCN(CCC)CCCOc1ccc2c(=O)c3c(F)cc(F)cc3[nH]c2c1`, the MRT [1] is reported as 13.3 h, the Activity [2] is reported as “Non-Toxic” and the Tmax [3] is reported as 7.78 h. For the same compound, the AUC(0-t) [4] was 3430 ng·h/mL, the Cmax [5] was 19700 ng/mL and the Cmax [6] was 526 ng/mL. It also gave an inhibition at 10 µM (hERG (KCNH2)) of 102%, an MRT [7] of 11.8 h and an IC50 (Plasmodium berghei [8]) of 3.4 nM. The IC50 (Plasmodium falciparum [9]) was 0.49 nM, the Activity (Plasmodium berghei [10]) was 100% and the Vz [11] was 175302 mL/kg. For the same compound, the AUC(0-inf) [12] was 237 µg·h/mL, the AUC(0-t) [13] was 236 µg·h/mL and the half-life [14] was 467 min. The CL/F [15] was 265 mL/min/kg, the half-life at 1 µM [16] was > 60 min and the IC50 (HepG2) was 61.5 µM. For the same compound, the ED50 (Plasmodium yoelii [17]) was 0.6 mg/kg.day, the ED90 (Plasmodium yoelii [17]) was 2.48 mg/kg.day and the Tmax [18] was 4 h. It also gave an IC50 (Plasmodium falciparum [19]) of 0.35 nM, a selectivity ratio [20] of 176000 and an IC50 (Plasmodium falciparum [21]) of 440 nM. For the same compound, the half-life at 1 µM [22] was > 60 min, the half-life [23] was 395 min and the Activity [24] was “Non-Toxic”. The Activity [25] was “Non-Toxic”, the Activity (Plasmodium berghei [26]) was 100% and the IC50 (Plasmodium falciparum [27]) was 2.1 nM. The Activity [28] was “Non-Toxic” and the AUC(0-inf) [29] was 5080 ng·h/mL.

In the case of `CCCN(CCC)CCOc1ccc2c(=O)c3c(Cl)c(Cl)ccc3[nH]c2c1`, the MRT [1] is reported as 6.07 h, the Activity [2] is reported as “Non-Toxic” and the Tmax [3] is reported as 5.5 h. For the same compound, the AUC(0-t) [4] was 3840 ng·h/mL, the Cmax [5] was 42300 ng/mL and the Cmax [6] was 631 ng/mL. The inhibition at 10 µM (hERG (KCNH2)) was 25%, the MRT [7] was 4.69 h and the IC50 (Plasmodium falciparum [30]) was 79 nM. The Activity [31] was “Non-Toxic”, the IC50 (Plasmodium berghei [8]) was 1.1 nM and the IC50 (Plasmodium falciparum [32]) was 50 nM. It also gave an IC50 (Plasmodium falciparum [9]) of 0.05 to 9 nM, an Activity (Plasmodium berghei [10]) of 100% and a Vz [11] of 58684 mL/kg. The AUC(0-inf) [12] was 547 µg·h/mL, the AUC(0-t) [13] was 547 µg·h/mL and the Activity [33] was “Non-Toxic”. It also gave a half-life [14] of 137 min, a CL/F [15] of 295 mL/min/kg and a half-life at 1 µM [16] of 17 min. The IC50 (HepG2) was 41.6 µM, the Activity (Plasmodium yoelii [34]) was 100% and the ED50 (Plasmodium yoelii [17]) was 1.04 mg/kg.day. For the same compound, the ED90 (Plasmodium yoelii [17]) was 1.14 mg/kg.day, the inhibition (Plasmodium falciparum [35]) was “inactive” and the Tmax [18] was 7 h. The IC50 (Plasmodium falciparum [19]) was 0.17 nM, the selectivity ratio [20] was 245000 and the IC50 (Plasmodium falciparum [21]) was 142 nM. For the same compound, the half-life at 1 µM [22] was 11 min, the half-life [23] was 110 min and the Activity [24] was “Non-Toxic”. For the same compound, the Activity [25] was “Non-Toxic”, the Activity (Plasmodium berghei [26]) was 100% and the IC50 (Plasmodium falciparum [27]) was 0.3 nM. The Activity [28] was “Non-Toxic”, the IC50 (Plasmodium falciparum [36]) was 216 nM and the AUC(0-inf) [29] was 4520 ng·h/mL.
